Results as given in patent publication US11952433B2, “Heterochiral peptide-complex and composition for measuring nuclear magnetic resonance spectroscopy residual dipolar coupling containing self-assembled intermediates of heterochiral peptide-complex” (INDUSTRY-ACADEMIC COOPERATION FOUNDATION, YONSEI UNIVERSITY, priority 2020, dated 2024).

Experiments:
[1] = Time course of self-assembly in solution by CD and AFM; type: physicochemical; conditions: in water; for self-assembly kinetics (in words): CD and AFM with time
Method: The CD spectra of the peptide complexes in aqueous solution were acquired using a Chirascan™ CD spectrometer. All the peptide complexes were adjusted to 20 μM with DI water and then incubated at room temperature for 2 hours. The CD spectra were recorded using a 2-mm path-length cuvette from 250 nm to 190 nm at 25° C. Each spectrum was collected by averaging three scans and corrected for the distilled water background spectrum.
The peptide complex samples were diluted to 20 μM and 10 μL was dropped onto a freshly cleaved mica plate. After 1 minute of incubation, the mica plate was washed with 100 μL of doubly distilled water and then the residual solution was gently removed using filter paper. After completely drying at room temperature, AFM measurement was made. The AFM scans were conducted at noncontact mode (NCM) with a Park NX10 instrument (Park Systems, Korea). The scanning was performed at a scan rate of 0.3 Hz and a Z-gain of 1.
All the peptide samples were diluted to 1 mM and divided into 1-mL aliquots. The aliquots were heated at 95° C. for 1 hour and slowly annealed in a water bath overnight. After the annealing process, the samples were incubated at room temperature and the self-assembly process with time was analyzed by CD, AFM, WAXS, NMR, etc.

[2] = Wide-angle X-ray scattering (WAXS) of the colloidal crystal solution; type: physicochemical; conditions: for WAXS d-spacing, intersheet distance / WAXS reflection d (second reflection) / WAXS reflection d, interstrand distance of β-sheets: 3.0 mg/mL, room temperature
Method: Wide-angle X-ray scattering analysis was performed using the 4C SAXS II beamline (BL) of the Pohang Accelerator Laboratory (PAL, Korea). In-vacuum undulator 20 of the Pohang Light Source II storage ring was used as a beam source, and a vertical toroidal focusing mirror was used to deliver an X-ray beam of 0.675 Å. 100 μL of the sample solution was mounted in a quartz microcapillary with a thickness of 10 μm and a length of 80 mm. The sample was irradiated for 5 seconds of exposure time at room temperature. The concentrations of the samples of Comparative Examples 1-2 and Example 1 (T-W6, T-w6 and T-(wW)3) were all 3.0 mg/mL. The X-ray scattering patterns were collected by using a charge-coupled detector (Mar USA, Inc.) positioned 20 cm apart from the sample (0.25 Å^−1<q<2.00 Å^−1).
The data were captured in six continuous frames of 0.1 minute each to minimize the damage from irradiation. Each 2D scattering pattern was averaged circularly from the beam focus and normalized to the intensity of the transmitted X-ray beam. The transmitted beam intensity was monitored with a scintillation counter. The scattering pattern of water was used as the experimental background.
However, the detailed molecular arrangement of the peptide in each crystal might be different. To address this question, wide-angle X-ray scattering (WAXS) analysis of the colloidal crystal solution was performed.

Which “self-assembly kinetics (in words)” value [1] does the source give for “PEGylated (L)Trp-(D)Trp-(L)Trp-(D)Trp-(L)Trp-(D)Trp [Example 2]” here?
Its value is “same slow assembly kinetics”.

Which “self-assembly kinetics (in words)” value [1] does the source give for “(D)Trp-(L)Trp-(D)Trp-(L)Tre-(D)Trp-(L)Trp [Example 1]” here?
Its value is “markedly slower self-assembly kinetics”.

What about the “time after which the increase in CD signals had almost ceased (self-assembly equilibrium)” value ([1]; room temperature after annealing) of the same substance?
Its value is 2 weeks.

And the “distance between the β strands” value [2]?
The value was 4.56-4.92 Å.

What about the “WAXS d-spacing, intersheet distance” value [2] of the same substance?
Its value is 17.0 Å.

And the “WAXS reflection d (second reflection)” value [2]?
Its value is 5.6 Å.

What about the “WAXS reflection d, interstrand distance of β-sheets” value [2] of the same substance?
Its value is 4.7 Å.

Which results are given for “PEGylated (L)Trp-(L)Trp-(L)Trp-(L)Trp-(L)Trp-(L)Trp [Comparative Example 1]”?
WAXS d-spacing, intersheet distance [2]: 17.5 Å; WAXS reflection d (second reflection) [2]: 5.8 Å; WAXS reflection d, interstrand distance of β-sheets [2]: 4.7 Å

With “PEGylated (D)Trp-(D)Trp-(D)Trp-(D)Trp-(D)Trp-(D)Trp [Comparative Example 2]” as the substance, how does the “WAXS d-spacing, intersheet distance” value [2] read?
Its value is 17.5 Å.

What about the “WAXS reflection d (second reflection)” value [2] of the same substance?
The value was 5.8 Å.

And the “WAXS reflection d, interstrand distance of β-sheets” value [2]?
Its value is 4.7 Å.
